The target of one experiment is T1, recombinant human IDO2 (Homo sapiens, UniProt Q6ZQW0).
T1 construct: purchased 71194
T1 sequence (Q6ZQW0 1-407): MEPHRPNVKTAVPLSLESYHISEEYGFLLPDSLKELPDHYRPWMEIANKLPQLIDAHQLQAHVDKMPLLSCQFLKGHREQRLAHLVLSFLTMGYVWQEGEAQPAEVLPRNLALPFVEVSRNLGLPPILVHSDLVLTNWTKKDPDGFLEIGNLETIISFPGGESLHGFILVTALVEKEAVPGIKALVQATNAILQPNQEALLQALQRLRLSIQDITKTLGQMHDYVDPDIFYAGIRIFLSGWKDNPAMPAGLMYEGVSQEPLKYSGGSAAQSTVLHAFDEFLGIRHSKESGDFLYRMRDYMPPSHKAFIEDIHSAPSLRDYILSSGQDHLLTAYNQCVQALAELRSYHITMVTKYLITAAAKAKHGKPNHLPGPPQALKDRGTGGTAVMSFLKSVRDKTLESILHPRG
Nature of the experiment: IDO2 UV absorbance assay (L-tryptophan, 321 nm). It counts as biochemical. Conditions: for Absorbance (net) Repeat 1 / Absorbance (net) Repeat 2: Table 46.

The next experiment deals with T2, SIRT1 (Homo sapiens, UniProt Q96EB6).
T2 construct: purchased 50012
T2 sequence (Q96EB6 1-747): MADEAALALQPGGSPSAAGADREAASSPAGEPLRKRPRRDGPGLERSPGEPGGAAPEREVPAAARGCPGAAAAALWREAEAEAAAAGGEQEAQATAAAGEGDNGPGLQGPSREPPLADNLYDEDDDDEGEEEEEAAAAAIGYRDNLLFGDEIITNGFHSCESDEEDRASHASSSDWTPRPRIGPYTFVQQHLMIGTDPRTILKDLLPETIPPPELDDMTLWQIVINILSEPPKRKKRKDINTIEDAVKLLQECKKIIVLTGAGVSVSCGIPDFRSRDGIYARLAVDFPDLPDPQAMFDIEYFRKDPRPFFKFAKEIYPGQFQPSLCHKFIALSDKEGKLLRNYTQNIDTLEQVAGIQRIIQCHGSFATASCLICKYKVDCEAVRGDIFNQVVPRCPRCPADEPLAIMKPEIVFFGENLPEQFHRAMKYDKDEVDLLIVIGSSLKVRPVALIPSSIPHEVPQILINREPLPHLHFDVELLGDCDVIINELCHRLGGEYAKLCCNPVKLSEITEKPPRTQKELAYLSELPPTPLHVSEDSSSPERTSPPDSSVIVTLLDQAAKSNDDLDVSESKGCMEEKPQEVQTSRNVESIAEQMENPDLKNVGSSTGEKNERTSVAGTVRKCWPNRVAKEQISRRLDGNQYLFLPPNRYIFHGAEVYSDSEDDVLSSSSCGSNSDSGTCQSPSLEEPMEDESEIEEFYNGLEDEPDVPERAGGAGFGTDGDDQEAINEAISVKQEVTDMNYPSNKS
Put plainly: SIRT1 fluorogenic HDAC substrate activity assay. It counts as biochemical.

The target in another experiment is T3, human recombinant ARG2 (Homo sapiens, UniProt P78540).
T3 sequence (P78540 23-354): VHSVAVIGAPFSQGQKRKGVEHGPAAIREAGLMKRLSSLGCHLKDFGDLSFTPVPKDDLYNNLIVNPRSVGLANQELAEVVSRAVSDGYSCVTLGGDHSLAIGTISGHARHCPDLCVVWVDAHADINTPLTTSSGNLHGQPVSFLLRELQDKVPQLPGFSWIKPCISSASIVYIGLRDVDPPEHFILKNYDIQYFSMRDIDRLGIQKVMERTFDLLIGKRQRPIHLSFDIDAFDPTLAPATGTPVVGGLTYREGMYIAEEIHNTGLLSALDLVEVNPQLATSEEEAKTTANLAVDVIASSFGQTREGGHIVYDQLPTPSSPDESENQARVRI
Put plainly: ARG2 enzymatic inhibition assay (thioarginine substrate, UV absorbance 412 nm). The experiment is classed as biochemical.

A further experiment addresses T4, human recombinant ARG1 (Homo sapiens, UniProt P05089).
T4 sequence (P05089 1-322): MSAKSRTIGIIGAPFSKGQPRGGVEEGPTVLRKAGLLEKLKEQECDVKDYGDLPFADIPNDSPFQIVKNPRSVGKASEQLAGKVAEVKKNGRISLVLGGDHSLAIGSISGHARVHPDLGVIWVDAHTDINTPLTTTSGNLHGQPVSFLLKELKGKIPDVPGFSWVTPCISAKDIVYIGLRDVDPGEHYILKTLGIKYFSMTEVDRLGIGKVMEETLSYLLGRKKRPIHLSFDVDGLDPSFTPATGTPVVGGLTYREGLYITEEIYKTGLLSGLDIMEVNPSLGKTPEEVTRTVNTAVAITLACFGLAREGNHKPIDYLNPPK
Nature of the experiment: ARG1 enzymatic inhibition assay (thioarginine substrate, UV absorbance 412 nm). It counts as biochemical.

Experiment [1] concerns the target T5, recombinant human CD47 (hCD47) with human SIRP-α (Homo sapiens, UniProt Q08722).
T5 construct: purchased 71177 (hCD47, Fc fusion); 71138 (hSIRP-α, Biotin-labeled)
Nature of the experiment: CD47/SIRP-α in vitro binding assay. As for the experimental part:
Assay Conditions: CD47 was coated using 50 μL at 2 ng/μL at 4° C. overnight. After wash and block steps the test compounds were added to CD47-coated plate followed by addition of SIRP-α-biotin. Reaction was incubated for 2 h at room temperature. Binding was detected using HRP-conjugated Streptavidin.

The mark [2] stands for this setting: read-out: Activity (%) Repeat 1.
Where [3] appears, read: read-out: Activity (%) Repeat 2.
Setting [4] is: test concentration 0.001 μM, read-out: Activity (%) Rep. 1.
[5] abbreviates: test concentration 0.01 μM, read-out: Activity (%) Rep. 1.
[6] abbreviates: test concentration 0.1 μM, read-out: Activity (%) Rep. 1.

Read-outs that look alike come from different tables or passages of the source.

T5 sequence (Q08722 19-141 limits assumed): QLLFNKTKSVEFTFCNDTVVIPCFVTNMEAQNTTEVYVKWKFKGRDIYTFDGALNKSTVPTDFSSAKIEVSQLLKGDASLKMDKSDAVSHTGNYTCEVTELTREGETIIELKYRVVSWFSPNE
Procedure for SIRT1: Assay Conditions: The sample was dissolved in 70% EtOH. The serial dilution of the compound was first performed in 70% EtOH with the highest concentration at 1%.
The enzymatic reactions for the SIRT1 enzyme were conducted in duplicate at 37° C. for 30 minutes in a 50 μl mixture containing SIRT assay buffer, 5 μg BSA, an HDAC substrate (see 2.3.1), a SIRT enzyme, and a test compound. After enzymatic reactions, 50 μl of 2× SIRT Developer was added to each well for the SIRT enzymes and the plate was incubated at room temperature for an additional 15 minutes. Fluorescence intensity was measured at an excitation of 360 nm and an emission of 460 nm using a Tecan Infinite M1000 microplate reader.
Data Analysis: SIRT activity assays were performed in duplicates at each concentration. […] In the absence of the compound, the fluorescent intensity (Ft) in each data set was defined as 100% activity. In the absence of SIRT, the fluorescent intensity (Fb) in each data set was defined as 0% activity. The percent activity in the presence of each compound was calculated according to the following equation: % activity=(F−Fb)/(Ft−Fb), where F=the fluorescent intensity in the presence of the compound.
Procedure for human recombinant ARG1: (§1) Assay conditions: The assay was performed using human recombinant ARG1 or ARG2 as enzymes and thioarginine as substrate. The UV absorbance at 412 nm was correlated with the amount of reaction product of ARG1/ARG2. […] 5 μl of 20× sample solutions were added to 90 μl of substrate, and reactions were started by the addition of 5 μl of 20× ARG1/ARG2 solutions. For the negative control (Blank), 5 μl of the assay buffer was added instead of the ARG1/ARG2. […] All reactions were conducted at room temperature and incubated for 30 minutes, ensuring that all wells, containing either samples or controls, contained 0.7% (v/v) EtOH final concentration to discard any solvent effect. UV absorbance readings were done at times 0 and 30 minutes to get net values. Absorbance was measured using a Tecan Infinite M1000 microplate reader.
(§2) Data Analysis: Experiment was performed in duplicate at each concentration. The data were analyzed using the software GraphPad Prism. In the absence of the compound, the net absorbance (At) in each data set was defined as 100% activity. In the absence of ARG1/ARG2, the net absorbance (Ab) in each data set was defined as 0% activity. The percent activity in the presence of each compound was calculated according to the following equation: % activity=[(A−Ab)/(At−Ab)]×100, where A=the absorbance in the presence of the compound.
Procedure for human recombinant ARG2: as §1, §2

The inhibition is the drop in the measured response relative to a control, in per cent. As for `NS(=O)(=O)NCCNc1nonc1C(=NO)Nc1ccc(F)c(Br)c1` [INCB024360], at recombinant human IDO2, the inhibition at 0.01 µM is 0%, the inhibition at 0.1 µM is 20% and the inhibition at 1 µM was 60%. For the same molecule, on recombinant human IDO2 (0.01 μM), the “Absorbance (net) Repeat 1” value is 0.17 and the “Absorbance (net) Repeat 2” value was 0.17. Moreover, at recombinant human IDO2 (0.1 μM), the “Absorbance (net) Repeat 1” value stood at 0.14 and the “Absorbance (net) Repeat 2” value was found to be 0.15. Also, at recombinant human IDO2 (1 μM), the “Absorbance (net) Repeat 1” value is 0.10 and the “Absorbance (net) Repeat 2” value is recorded as 0.11. For the same molecule, at recombinant human IDO2 (setting [2]), the activity at 0.01 µM was 105%, the activity at 0.1 µM turned out to be 75% and the activity at 1 µM came to 35%. Moreover, at recombinant human IDO2 (setting [3]), the activity at 0.01 µM was determined as 105%, the activity at 0.1 µM amounted to 85% and the activity at 1 µM turned out to be 45%.
In the case of `Cc1ccc(C(=O)Nc2ccc(S(=O)(=O)O)c3cc(S(=O)(=O)O)cc(S(=O)(=O)O)c23)cc1NC(=O)c1cccc(NC(=O)Nc2cccc(C(=O)Nc3cc(C(=O)Nc4ccc(S(=O)(=O)O)c5cc(S(=O)(=O)O)cc(S(=O)(=O)O)c45)ccc3C)c2)c1` [Suramin], on SIRT1, the inhibition at 0.1 µM amounted to 14% and 1 µM produced 74% inhibition. Further, on SIRT1 (read-out: % Activity Repeat 1), the activity at 0.1 µM is 85% and the activity at 1 µM amounted to 26%. Besides, at SIRT1 (read-out: % Activity Repeat 2), the activity at 0.1 µM stood at 86% and the activity at 1 µM was 26%. Besides, at SIRT1 (test concentration 0.01 μM), the “SIRT1 Activity (Fluorescence count) Repeat 1” value was found to be 2415, the “SIRT1 Activity (Fluorescence count) Repeat 2” value is 2415 and at 0.01 µM the inhibition was 0%. Further, the activity at 0.01 µM at SIRT1 (test concentration 0.01 μM, read-out: % Activity Repeat 1) was 100%. Further, the activity at 0.01 µM on SIRT1 (test concentration 0.01 μM, read-out: % Activity Repeat 2) came out at 100%. Also, at SIRT1 (test concentration 0.1 μM), the “SIRT1 Activity (Fluorescence count) Repeat 1” value is 2074 and the “SIRT1 Activity (Fluorescence count) Repeat 2” value is 2082. In addition, at SIRT1 (test concentration 1 μM), the “SIRT1 Activity (Fluorescence count) Repeat 1” value is recorded as 710 and the “SIRT1 Activity (Fluorescence count) Repeat 2” value is on record as 702.
In the case of `N=C(NO)NCC[C@H](N)C(=O)O` [nor-NOHA], the “Net absorbance Rep. 1” value came out at 0.78 on human recombinant ARG2 (test concentration 0.001 μM); 0.56 on human recombinant ARG2 (test concentration 0.01 μM); 0.19 at human recombinant ARG2 (test concentration 0.1 μM); 0.74 on human recombinant ARG1 (test concentration 0.001 μM); 0.59 at human recombinant ARG1 (test concentration 0.01 μM); 0.23 on human recombinant ARG1 (test concentration 0.1 μM). Moreover, the “Net absorbance Rep. 2” value was 0.82 on human recombinant ARG2 (test concentration 0.001 μM); 0.60 at human recombinant ARG2 (test concentration 0.01 μM); 0.19 at human recombinant ARG2 (test concentration 0.1 μM); 0.77 at human recombinant ARG1 (test concentration 0.001 μM); 0.59 at human recombinant ARG1 (test concentration 0.01 μM); 0.24 at human recombinant ARG1 (test concentration 0.1 μM). Further, the inhibition at 0.001 µM at human recombinant ARG2 (test concentration 0.001 μM, read-out: ARG-2 Inhibition (%)) worked out at 17%; at human recombinant ARG1 (test concentration 0.001 μM, read-out: ARG-1 Inhibition (%)), 0%. The activity at 0.001 µM was 81% at human recombinant ARG2 (setting [4]); 84% on human recombinant ARG2 (test concentration 0.001 μM, read-out: Activity (%) Rep. 2); 99% on human recombinant ARG1 (setting [4]); 102% at human recombinant ARG1 (test concentration 0.001 μM, read-out: Activity (%) Rep.2). In addition, the inhibition at 0.01 µM on human recombinant ARG2 (test concentration 0.01 μM, read-out: ARG-2 Inhibition (%)) came to 41%; at human recombinant ARG1 (test concentration 0.01 μM, read-out: ARG-1 Inhibition (%)), 22%. The activity at 0.01 µM came to 57% on human recombinant ARG2 (setting [5]); 62% on human recombinant ARG2 (test concentration 0.01 μM, read-out: Activity (%) Rep. 2); 79% on human recombinant ARG1 (setting [5]); 78% on human recombinant ARG1 (test concentration 0.01 μM, read-out: Activity (%) Rep.2). In addition, the inhibition at 0.1 µM came to 81% on human recombinant ARG2 (test concentration 0.1 μM, read-out: ARG-2 Inhibition (%)) and 69% at human recombinant ARG1 (test concentration 0.1 μM, read-out: ARG-1 Inhibition (%)). Also, the activity at 0.1 µM came to 19% at human recombinant ARG2 (setting [6]); 19% at human recombinant ARG2 (test concentration 0.1 μM, read-out: Activity (%) Rep. 2); 31% at human recombinant ARG1 (setting [6]); 31% on human recombinant ARG1 (test concentration 0.1 μM, read-out: Activity (%) Rep.2).
Consider SIRP-α, for which, in experiment [1] (0.05 μM), the “Activity (%) Repeat 1” value came out at 93%, the “Activity (%) Repeat 2” value came to 97%, the Inhibition (%) stood at 5% and the “Luminescence Repeat 1” value turned out to be 35347. The “Luminescence Repeat 2” value in experiment [1] (0.05 μM) was found to be 36581. Further, in experiment [1] (0.5 μM), the “Activity (%) Repeat 1” value was 52%, the “Activity (%) Repeat 2” value was determined as 51%, the Inhibition (%) amounted to 49% and the “Luminescence Repeat 1” value was 19746. The “Luminescence Repeat 2” value in experiment [1] (0.5 μM) was found to be 19259. Further, in experiment [1] (5 μM), the “Activity (%) Repeat 1” value amounted to 14%, the “Activity (%) Repeat 2” value was 18%, the Inhibition (%) came to 84% and the “Luminescence Repeat 1” value was found to be 5310. The “Luminescence Repeat 2” value in experiment [1] (5 μM) is 6891.

Source of the values: patent US11752188B2, “Compositions and methods for nutritional supplements” (DailyColors Health Inc., priority 2020, dated 2023).
